Assay results taken from ChEMBL document CHEMBL3132774, “The advantage of biosensor analysis over enzyme inhibition studies for slow dissociating inhibitors characterization of hydroxamate-based matrix metalloproteinase-12 inhibitors” (Medchemcomm, 2013).

Columns and labels:
[1] = biological target: T1, Macrophage metalloelastase (Homo sapiens, UniProt P39900); test: Time dependent inhibition of human recombinant MMP12 by progress curve enzyme inhibition assay; settings: read-out: Ki(app)
Target sequence in this assay (P39900 whole entry): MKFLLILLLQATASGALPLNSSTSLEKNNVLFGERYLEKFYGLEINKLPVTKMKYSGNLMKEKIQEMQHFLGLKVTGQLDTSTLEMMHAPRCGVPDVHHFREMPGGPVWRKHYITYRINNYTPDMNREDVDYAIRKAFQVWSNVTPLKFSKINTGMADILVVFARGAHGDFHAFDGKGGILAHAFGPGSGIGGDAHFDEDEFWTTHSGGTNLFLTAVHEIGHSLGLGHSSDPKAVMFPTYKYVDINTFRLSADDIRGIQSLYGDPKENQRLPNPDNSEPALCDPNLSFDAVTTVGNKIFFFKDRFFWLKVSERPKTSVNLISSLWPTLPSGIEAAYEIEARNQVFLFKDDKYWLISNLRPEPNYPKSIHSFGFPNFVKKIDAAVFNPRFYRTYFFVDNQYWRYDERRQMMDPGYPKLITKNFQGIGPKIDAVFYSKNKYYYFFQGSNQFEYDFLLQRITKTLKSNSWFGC

[2] = biological target: T1, Macrophage metalloelastase; test: Inhibition of human recombinant MMP12 using Mca-Pro-Leu-Gly-Leu-Dpa-Ala-Arg-NH2 as substrate incubated for 10 mins prior to substrate addition by spectrophotometry; settings: read-out: Ki(app)
Target sequence in this assay (P39900 whole entry): as above

[3] = biological target: T1, Macrophage metalloelastase; test: Inhibition of human recombinant MMP12 by SPR assay
Target sequence in this assay (P39900 106-470 limits assumed): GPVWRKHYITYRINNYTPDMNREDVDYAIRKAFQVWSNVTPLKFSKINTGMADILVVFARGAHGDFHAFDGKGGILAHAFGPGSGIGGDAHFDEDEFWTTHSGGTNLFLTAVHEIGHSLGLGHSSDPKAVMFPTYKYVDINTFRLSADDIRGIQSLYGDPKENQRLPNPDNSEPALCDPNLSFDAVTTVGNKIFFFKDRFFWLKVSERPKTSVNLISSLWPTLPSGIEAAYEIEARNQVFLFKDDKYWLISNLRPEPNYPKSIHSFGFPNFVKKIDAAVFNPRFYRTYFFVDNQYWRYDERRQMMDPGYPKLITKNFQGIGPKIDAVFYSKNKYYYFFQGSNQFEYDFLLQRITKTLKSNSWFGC

SMILES | Ki [1] [nM] | Ki [2] [nM] | inhibition [3]
CCN(CC)Cc1cc(C)c(N(Cc2ccccc2)S(=O)(=O)c2ccc(OC)cc2)cc1C(=O)NO | 3.53 | 30 | –
CNC(=O)[C@H](Cc1c[nH]c2ccccc12)NC(=O)[C@@H](CC(=O)NO)CC(C)C [ILOMASTAT] | 0.52 | 3.8 | Dose-dependent effect
CNC(=O)[C@H](Cc1ccccc1)NC(=O)[C@H](CCc1ccc(-c2cccnc2)cc1)CC(=O)O | – | 48 | Dose-dependent effect

Now those with a lower Ki [2], led by results:

Ki [1] [nM] | Ki [2] [nM] | inhibition [3] | SMILES
0.61 | 1.9 | – | COc1ccc(S(=O)(=O)N2CC(C)(C)CN(S(=O)(=O)c3ccc(OC)cc3)C2C(=O)NO)cc1
– | 1 | – | CNC(=O)[C@H](Cc1ccccc1)NC(=O)[C@H](CCc1ccc(-c2cccnc2)cc1)CC(=O)NO
